Assay results published in patent US20210251963A1, “UREA DERIVATIVES FOR USE IN THE TREATMENT OF SUBJECTS WITH ELEVATED EXPRESSION AND/OR ACTIVITY OF SRPK1” (Scandion Oncology A/S, priority 2018, published 2021).
Where two headings read alike, the source gives them in different places.

Legend:
SRPK1 = molecular target: T1, SRPK1 (Homo sapiens, UniProt Q96SB4); assay: Premier Screen kinase activity screening and IC50 determination (33P ATP filter binding); type: biochemical
T1 construct: purchased MRC in Dundee (Premier Screen service)
T1 sequence (Q96SB4 whole entry): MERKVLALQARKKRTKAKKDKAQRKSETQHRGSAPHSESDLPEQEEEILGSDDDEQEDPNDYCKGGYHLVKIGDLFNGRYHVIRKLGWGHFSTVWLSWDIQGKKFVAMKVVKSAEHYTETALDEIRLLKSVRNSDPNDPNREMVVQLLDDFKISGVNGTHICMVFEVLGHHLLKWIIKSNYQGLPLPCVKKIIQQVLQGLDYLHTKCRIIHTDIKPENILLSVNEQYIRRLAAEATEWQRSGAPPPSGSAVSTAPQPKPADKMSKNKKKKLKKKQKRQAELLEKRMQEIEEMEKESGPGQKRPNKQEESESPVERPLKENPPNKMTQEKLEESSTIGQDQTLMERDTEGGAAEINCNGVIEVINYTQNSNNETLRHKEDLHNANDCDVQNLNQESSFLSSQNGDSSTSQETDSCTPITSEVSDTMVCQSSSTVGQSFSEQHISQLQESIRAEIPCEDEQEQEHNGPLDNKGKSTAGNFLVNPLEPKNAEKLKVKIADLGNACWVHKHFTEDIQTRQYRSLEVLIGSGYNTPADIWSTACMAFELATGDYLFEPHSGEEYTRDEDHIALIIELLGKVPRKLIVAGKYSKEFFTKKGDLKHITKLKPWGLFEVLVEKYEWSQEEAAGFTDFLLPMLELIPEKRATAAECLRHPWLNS
Excerpt: (§1) The kinase activity screening was done at MRC in Dundee. The screen was a so-called “Premier Screen” with 140 kinases. More specific information can be found here: http://www.kinase-screen.mrc.ac.uk/services/premier-screen
(§2) The method is based on a radioactive filter binding assay using 33P ATP (Hastie, et al 2006. Nat Protoc. 2006; 1(2):968-71; Bain, et al 2007. Biochem J. 2007 Dec. 15; 408(3):297-315). This method is sensitive, accurate and provides a direct measure of kinase enzyme activity. A concentration of 10 μM SCO-101 was used.
(§3) In the table below, the data is portrayed as the mean percentage activity of assay duplicates and a standard deviation. These percentage activities were calculated in comparison to DMSO controls. 10 μM SCO-101 reduced the activity of SRPK1 to 6% of the DMSO control.
This experiment was technically carried out as described in example 1, also done by MRC in Dundee. However, in this experiment 10 different concentrations of SCO-101 was applied in order to determine the half maximal inhibitory concentration (IC50). The following concentrations (in nM) were applied: 1.5, 5, 15, 50, 150, 500, 1500, 5000, […] and 50000. This experiment generated a dose response curve (FIG. 1), which confirmed the SCO-101 mediated inhibition of SRPK1. The IC50 value was determined to be 3.0 μM (Table 2).

ABL = molecular target: T2, ABL (Homo sapiens, UniProt P00519); assay: Premier Screen kinase activity screening (33P ATP filter binding); type: biochemical; details: 10 μM SCO-101, mean of assay duplicates, read-out: Kinase activity (percentage of DMSO control)
T2 construct: MRC in Dundee (screening service)
Excerpt: as §1, §2, §3

Aurora B = molecular target: T3, Aurora B (Homo sapiens, UniProt Q96GD4); assay: as above; type: biochemical; details: 10 μM SCO-101, mean of assay duplicates, read-out: Kinase activity (percentage of DMSO control)
T3 construct: purchased MRC in Dundee (Premier Screen service)
T3 sequence (Q96GD4 whole entry): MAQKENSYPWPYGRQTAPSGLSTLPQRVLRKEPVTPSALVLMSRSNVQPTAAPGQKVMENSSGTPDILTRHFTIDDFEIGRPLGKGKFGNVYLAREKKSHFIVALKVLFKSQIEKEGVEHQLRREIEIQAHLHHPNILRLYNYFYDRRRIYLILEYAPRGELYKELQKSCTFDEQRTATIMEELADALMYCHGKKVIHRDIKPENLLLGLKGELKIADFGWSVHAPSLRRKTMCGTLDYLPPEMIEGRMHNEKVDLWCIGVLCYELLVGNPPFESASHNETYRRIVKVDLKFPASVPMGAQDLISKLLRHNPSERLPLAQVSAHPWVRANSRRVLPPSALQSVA
Excerpt: as §1, §2, §3

BRSK1 = molecular target: T4, BRSK1 (Homo sapiens, UniProt Q8TDC3); assay: as above; type: biochemical; details: 10 μM SCO-101, mean of assay duplicates, read-out: Kinase activity (percentage of DMSO control)
T4 construct: purchased MRC in Dundee (Premier Screen service)
Excerpt: as §1, §2, §3

DYRK2 = molecular target: T5, DYRK2 (Homo sapiens, UniProt Q92630); assay: as above; type: biochemical; details: 10 μM SCO-101, mean of assay duplicates, read-out: Kinase activity (percentage of DMSO control)
T5 construct: purchased MRC in Dundee (Premier Screen service)
Excerpt: as §1, §2, §3

EIF2AK3 = molecular target: T6, EIF2AK3 (Homo sapiens, UniProt Q9NZJ5); assay: as above; type: biochemical; details: 10 μM SCO-101, mean of assay duplicates, read-out: Kinase activity (percentage of DMSO control)
T6 construct: MRC Dundee (screening service)
T6 sequence (Q9NZJ5 30-1116, species assumed): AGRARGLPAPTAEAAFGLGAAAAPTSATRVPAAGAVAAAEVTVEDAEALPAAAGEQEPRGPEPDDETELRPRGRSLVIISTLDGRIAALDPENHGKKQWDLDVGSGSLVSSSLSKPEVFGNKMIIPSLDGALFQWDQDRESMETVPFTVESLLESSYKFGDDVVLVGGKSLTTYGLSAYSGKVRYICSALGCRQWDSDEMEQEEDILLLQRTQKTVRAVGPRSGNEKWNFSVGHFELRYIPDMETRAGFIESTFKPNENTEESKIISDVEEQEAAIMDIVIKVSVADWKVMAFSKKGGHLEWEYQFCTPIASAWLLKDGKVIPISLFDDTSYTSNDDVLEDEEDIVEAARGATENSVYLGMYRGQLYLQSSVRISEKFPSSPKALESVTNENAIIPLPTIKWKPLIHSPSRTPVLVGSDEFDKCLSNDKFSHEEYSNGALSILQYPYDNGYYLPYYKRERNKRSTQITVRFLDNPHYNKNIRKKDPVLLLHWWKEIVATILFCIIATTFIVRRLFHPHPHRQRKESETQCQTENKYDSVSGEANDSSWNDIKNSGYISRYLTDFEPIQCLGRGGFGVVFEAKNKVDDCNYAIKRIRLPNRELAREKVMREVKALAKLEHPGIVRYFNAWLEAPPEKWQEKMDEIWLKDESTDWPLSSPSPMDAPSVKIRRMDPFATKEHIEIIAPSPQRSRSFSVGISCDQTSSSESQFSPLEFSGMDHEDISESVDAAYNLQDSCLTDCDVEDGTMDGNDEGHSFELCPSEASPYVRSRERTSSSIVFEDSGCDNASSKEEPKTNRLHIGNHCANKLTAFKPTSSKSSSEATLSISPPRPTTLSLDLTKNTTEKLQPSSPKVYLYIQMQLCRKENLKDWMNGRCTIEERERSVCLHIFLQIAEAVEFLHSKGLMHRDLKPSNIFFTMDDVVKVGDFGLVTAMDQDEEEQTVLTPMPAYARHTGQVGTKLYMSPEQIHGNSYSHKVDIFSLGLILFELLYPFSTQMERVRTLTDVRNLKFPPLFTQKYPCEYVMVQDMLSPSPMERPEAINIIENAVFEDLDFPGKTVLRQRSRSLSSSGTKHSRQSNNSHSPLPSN
Excerpt: as §1, §2, §3

EPH-B2 = EPH-B2 (Homo sapiens, UniProt P29323); assay: as above; type: biochemical; details: 10 μM SCO-101, mean of assay duplicates, read-out: Kinase activity (percentage of DMSO control)
Excerpt: as §1, §2, §3

HIPK1 = molecular target: T7, HIPK1 (Homo sapiens, UniProt Q86Z02); assay: as above; type: biochemical; details: 10 μM SCO-101, mean of assay duplicates, read-out: Kinase activity (percentage of DMSO control)
T7 construct: MRC Dundee (screening service)
Excerpt: as §1, §2, §3

IKKb = molecular target: T8, IKKb (Homo sapiens, UniProt O14920); assay: as above; type: biochemical; details: 10 μM SCO-101, mean of assay duplicates, read-out: Kinase activity (percentage of DMSO control)
T8 construct: MRC Dundee (screening service)
Excerpt: as §1, §2, §3

IR = molecular target: T9, IR (Homo sapiens, UniProt P06213); assay: as above; type: biochemical; details: 10 μM SCO-101, mean of assay duplicates, read-out: Kinase activity (percentage of DMSO control)
T9 construct: MRC Dundee (screening service)
Excerpt: as §1, §2, §3

JNK1 = molecular target: T10, JNK1 (Homo sapiens, UniProt P45983); assay: as above; type: biochemical; details: 10 μM SCO-101, mean of assay duplicates, read-out: Kinase activity (percentage of DMSO control)
T10 construct: purchased MRC Dundee, Premier Screen (contract screening service)
Excerpt: as §1, §2, §3

JNK2 = molecular target: T11, JNK2 (Homo sapiens, UniProt P45984); assay: as above; type: biochemical; details: 10 μM SCO-101, mean of assay duplicates, read-out: Kinase activity (percentage of DMSO control)
T11 construct: purchased MRC Dundee, Premier Screen (contract screening service)
Excerpt: as §1, §2, §3

LKB1 = molecular target: T12, LKB1 (Homo sapiens, UniProt Q15831); assay: as above; type: biochemical; details: 10 μM SCO-101, mean of assay duplicates, read-out: Kinase activity (percentage of DMSO control)
T12 construct: MRC Dundee (screening service)
Excerpt: as §1, §2, §3

MAP4K3 = MAP4K3 (Homo sapiens, UniProt Q8IVH8); assay: as above; type: biochemical; details: 10 μM SCO-101, mean of assay duplicates, read-out: Kinase activity (percentage of DMSO control)
Excerpt: as §1, §2, §3

MARK3 = molecular target: T13, MARK3 (Homo sapiens, UniProt P27448); assay: as above; type: biochemical; details: 10 μM SCO-101, mean of assay duplicates, read-out: Kinase activity (percentage of DMSO control)
T13 construct: MRC Dundee (screening service)
Excerpt: as §1, §2, §3

MEKK1 = molecular target: T14, MEKK1 (Homo sapiens, UniProt Q13233); assay: as above; type: biochemical; details: 10 μM SCO-101, mean of assay duplicates, read-out: Kinase activity (percentage of DMSO control)
T14 construct: purchased MRC Dundee, Premier Screen (contract screening service)
T14 sequence (Q13233 whole entry, species assumed): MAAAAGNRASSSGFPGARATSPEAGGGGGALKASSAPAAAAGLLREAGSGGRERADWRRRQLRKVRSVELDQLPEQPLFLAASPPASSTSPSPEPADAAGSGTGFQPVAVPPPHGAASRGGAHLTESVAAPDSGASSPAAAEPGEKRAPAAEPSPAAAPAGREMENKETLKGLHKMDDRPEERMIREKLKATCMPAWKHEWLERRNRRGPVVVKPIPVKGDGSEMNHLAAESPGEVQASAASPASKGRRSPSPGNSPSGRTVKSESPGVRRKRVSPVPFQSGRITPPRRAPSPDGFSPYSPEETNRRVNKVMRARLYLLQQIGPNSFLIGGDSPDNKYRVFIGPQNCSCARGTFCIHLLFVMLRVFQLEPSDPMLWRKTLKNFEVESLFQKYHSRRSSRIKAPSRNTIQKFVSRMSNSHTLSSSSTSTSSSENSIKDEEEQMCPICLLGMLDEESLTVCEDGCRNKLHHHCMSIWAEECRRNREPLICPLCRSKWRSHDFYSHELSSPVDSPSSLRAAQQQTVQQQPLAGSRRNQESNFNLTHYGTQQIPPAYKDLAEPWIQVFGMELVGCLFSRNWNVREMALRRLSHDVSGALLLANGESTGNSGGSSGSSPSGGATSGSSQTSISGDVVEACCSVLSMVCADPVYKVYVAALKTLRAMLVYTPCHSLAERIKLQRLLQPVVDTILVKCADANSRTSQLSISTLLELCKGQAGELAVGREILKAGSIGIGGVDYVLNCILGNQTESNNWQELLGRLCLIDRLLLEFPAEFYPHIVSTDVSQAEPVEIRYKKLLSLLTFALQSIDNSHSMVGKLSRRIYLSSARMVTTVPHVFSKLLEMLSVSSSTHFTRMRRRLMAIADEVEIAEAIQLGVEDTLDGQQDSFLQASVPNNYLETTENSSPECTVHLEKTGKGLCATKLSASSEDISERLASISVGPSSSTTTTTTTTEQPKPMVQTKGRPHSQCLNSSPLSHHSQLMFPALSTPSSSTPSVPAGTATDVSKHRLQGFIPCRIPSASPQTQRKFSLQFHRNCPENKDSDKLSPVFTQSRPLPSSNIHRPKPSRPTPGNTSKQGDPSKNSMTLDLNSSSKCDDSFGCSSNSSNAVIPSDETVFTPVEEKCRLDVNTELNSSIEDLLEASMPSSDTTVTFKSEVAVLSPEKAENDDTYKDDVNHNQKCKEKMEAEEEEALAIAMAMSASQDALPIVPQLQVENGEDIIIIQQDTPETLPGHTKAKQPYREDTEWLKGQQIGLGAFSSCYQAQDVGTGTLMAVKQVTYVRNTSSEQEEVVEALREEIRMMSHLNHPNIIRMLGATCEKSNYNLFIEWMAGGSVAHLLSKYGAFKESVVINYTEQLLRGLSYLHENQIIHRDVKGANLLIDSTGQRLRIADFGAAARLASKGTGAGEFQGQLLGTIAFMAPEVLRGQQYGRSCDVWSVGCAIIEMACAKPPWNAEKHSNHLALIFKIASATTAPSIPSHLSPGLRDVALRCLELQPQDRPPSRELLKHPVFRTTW
Excerpt: as §1, §2, §3

MLK1 = molecular target: T15, MLK1 (Homo sapiens, UniProt P80192); assay: as above; type: biochemical; details: 10 μM SCO-101, mean of assay duplicates, read-out: Kinase activity (percentage of DMSO control)
T15 construct: MRC Dundee (screening service)
Excerpt: as §1, §2, §3

MNK2 = molecular target: T16, MNK2 (Homo sapiens, UniProt Q9HBH9); assay: as above; type: biochemical; details: 10 μM SCO-101, mean of assay duplicates, read-out: Kinase activity (percentage of DMSO control)
T16 construct: purchased MRC Dundee, Premier Screen (contract screening service)
T16 sequence (Q9HBH9 whole entry, species assumed): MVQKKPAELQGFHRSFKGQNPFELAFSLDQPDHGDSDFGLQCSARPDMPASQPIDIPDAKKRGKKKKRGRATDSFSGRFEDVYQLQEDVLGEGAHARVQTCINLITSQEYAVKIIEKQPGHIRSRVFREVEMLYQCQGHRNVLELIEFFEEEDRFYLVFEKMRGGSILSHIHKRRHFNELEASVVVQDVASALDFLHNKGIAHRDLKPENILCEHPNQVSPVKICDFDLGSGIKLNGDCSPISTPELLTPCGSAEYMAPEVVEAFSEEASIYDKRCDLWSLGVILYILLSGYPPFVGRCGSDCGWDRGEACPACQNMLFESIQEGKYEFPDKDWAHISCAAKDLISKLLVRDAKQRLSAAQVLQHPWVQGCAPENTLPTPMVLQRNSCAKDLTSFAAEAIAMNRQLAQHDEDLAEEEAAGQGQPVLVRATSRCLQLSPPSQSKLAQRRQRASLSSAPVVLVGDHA
Excerpt: as §1, §2, §3

MPSK1 = MPSK1 (Homo sapiens, UniProt O75716); assay: as above; type: biochemical; details: 10 μM SCO-101, mean of assay duplicates, read-out: Kinase activity (percentage of DMSO control)
Excerpt: as §1, §2, §3

MST3 = molecular target: T17, MST3 (Homo sapiens, UniProt Q9Y6E0); assay: as above; type: biochemical; details: 10 μM SCO-101, mean of assay duplicates, read-out: Kinase activity (percentage of DMSO control)
T17 construct: purchased MRC in Dundee (Premier Screen service)
Excerpt: as §1, §2, §3

PAK6 = PAK6 (Homo sapiens, UniProt Q9NQU5); assay: as above; type: biochemical; details: 10 μM SCO-101, mean of assay duplicates, read-out: Kinase activity (percentage of DMSO control)
Excerpt: as §1, §2, §3

PIM2 = molecular target: T18, PIM2 (Homo sapiens, UniProt Q9P1W9); assay: as above; type: biochemical; details: 10 μM SCO-101, mean of assay duplicates, read-out: Kinase activity (percentage of DMSO control)
T18 construct: purchased MRC in Dundee (Premier Screen service)
Excerpt: as §1, §2, §3

SIK2 = molecular target: T19, SIK2 (Homo sapiens, UniProt Q9H0K1); assay: as above; type: biochemical; details: 10 μM SCO-101, mean of assay duplicates, read-out: Kinase activity (percentage of DMSO control)
T19 construct: MRC in Dundee (screening service)
Excerpt: as §1, §2, §3

TESK1 = molecular target: T20, TESK1 (Homo sapiens, UniProt Q15569); assay: as above; type: biochemical; details: 10 μM SCO-101, mean of assay duplicates, read-out: Kinase activity (percentage of DMSO control)
T20 construct: purchased MRC in Dundee (Premier Screen service)
Excerpt: as §1, §2, §3

TSSK1 = molecular target: T21, TSSK1 (Homo sapiens, UniProt Q9BXA7); assay: as above; type: biochemical; details: 10 μM SCO-101, mean of assay duplicates, read-out: Kinase activity (percentage of DMSO control)
T21 construct: MRC in Dundee (screening service)
Excerpt: as §1, §2, §3

TTK = molecular target: T22, TTK (Homo sapiens, UniProt P33981); assay: as above; type: biochemical; details: 10 μM SCO-101, mean of assay duplicates, read-out: Kinase activity (percentage of DMSO control)
T22 construct: MRC in Dundee (screening service)
T22 sequence (P33981 whole entry, species assumed): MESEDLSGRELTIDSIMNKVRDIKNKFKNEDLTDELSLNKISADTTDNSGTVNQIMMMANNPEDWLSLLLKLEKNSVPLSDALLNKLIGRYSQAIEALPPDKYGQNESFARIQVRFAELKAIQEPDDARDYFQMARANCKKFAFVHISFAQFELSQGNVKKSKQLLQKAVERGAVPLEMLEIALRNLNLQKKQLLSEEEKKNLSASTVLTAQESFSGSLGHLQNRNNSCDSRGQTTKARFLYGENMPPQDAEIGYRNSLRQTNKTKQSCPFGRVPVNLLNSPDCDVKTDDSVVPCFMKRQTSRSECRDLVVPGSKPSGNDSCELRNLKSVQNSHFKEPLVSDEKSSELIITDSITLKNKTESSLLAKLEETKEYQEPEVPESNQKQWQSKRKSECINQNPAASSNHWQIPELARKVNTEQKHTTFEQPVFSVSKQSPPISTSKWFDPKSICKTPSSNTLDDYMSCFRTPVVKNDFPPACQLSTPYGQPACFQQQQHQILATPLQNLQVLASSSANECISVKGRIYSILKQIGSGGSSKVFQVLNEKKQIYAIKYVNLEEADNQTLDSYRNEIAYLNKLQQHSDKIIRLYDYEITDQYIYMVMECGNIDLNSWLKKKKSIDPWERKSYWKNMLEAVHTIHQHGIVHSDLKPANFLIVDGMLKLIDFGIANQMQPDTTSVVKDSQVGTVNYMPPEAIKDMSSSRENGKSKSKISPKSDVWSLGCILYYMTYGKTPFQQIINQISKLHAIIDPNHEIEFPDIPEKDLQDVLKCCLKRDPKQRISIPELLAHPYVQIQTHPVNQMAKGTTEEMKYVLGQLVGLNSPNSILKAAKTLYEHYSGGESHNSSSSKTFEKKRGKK
Excerpt: as §1, §2, §3

TrkA = molecular target: T23, TrkA (Homo sapiens, UniProt P04629); assay: as above; type: biochemical; details: 10 μM SCO-101, mean of assay duplicates, read-out: Kinase activity (percentage of DMSO control)
T23 construct: purchased MRC in Dundee (Premier Screen service)
Excerpt: as §1, §2, §3

ULK2 = molecular target: T24, ULK2 (Homo sapiens, UniProt Q8IYT8); assay: as above; type: biochemical; details: 10 μM SCO-101, mean of assay duplicates, read-out: Kinase activity (percentage of DMSO control)
T24 construct: MRC Dundee (screening service)
Excerpt: as §1, §2, §3

VEG-FR = molecular target: T25, VEG-FR (Homo sapiens, UniProt P17948); assay: as above; type: biochemical; details: 10 μM SCO-101, mean of assay duplicates, read-out: Kinase activity (percentage of DMSO control)
T25 construct: purchased MRC in Dundee (Premier Screen service)
Excerpt: as §1, §2, §3

WNK1 = molecular target: T26, WNK1 (Homo sapiens, UniProt Q9H4A3); assay: as above; type: biochemical; details: 10 μM SCO-101, mean of assay duplicates, read-out: Kinase activity (percentage of DMSO control)
T26 construct: purchased MRC Dundee, Premier Screen (contract screening service)
Excerpt: as §1, §2, §3

p38d MAPK = p38d MAPK (Homo sapiens, UniProt O15264); assay: as above; type: biochemical; details: 10 μM SCO-101, mean of assay duplicates, read-out: Kinase activity (percentage of DMSO control)
Excerpt: as §1, §2, §3

AMPK (hum) = assay: as above; type: biochemical, human; details: 10 μM SCO-101, mean of assay duplicates
Excerpt: as §1, §2, §3

## O=C(Nc1cc(C(F)(F)F)cc(C(F)(F)F)c1)Nc1ccc(Br)cc1-c1nnn[nH]1 [SCO-101]
SRPK1; 10 μM SCO-101, mean of assay duplicates, read-out: Kinase activity (percentage of DMSO control)
  remaining activity at 10 µM: 6%
SRPK1; first determination, 10 concentrations, read-out: IC50
  IC50: 2.9 µM
SRPK1; mean of two determinations, read-out: mean IC50
  IC50: 3 µM
SRPK1; second determination, 10 concentrations, read-out: IC50
  IC50: 3 µM
ABL
  remaining activity at 10 µM: 85%
Aurora B
  remaining activity at 10 µM: 61%
BRSK1
  remaining activity at 10 µM: 124%
DYRK2
  remaining activity at 10 µM: 78%
EIF2AK3
  remaining activity at 10 µM: 103%
EPH-B2
  remaining activity at 10 µM: 117%
HIPK1
  remaining activity at 10 µM: 98%
IKKb
  remaining activity at 10 µM: 99%
IR
  remaining activity at 10 µM: 98%
JNK1
  remaining activity at 10 µM: 105%
JNK2
  remaining activity at 10 µM: 105%
LKB1
  remaining activity at 10 µM: 96%
MAP4K3
  remaining activity at 10 µM: 113%
MARK3
  remaining activity at 10 µM: 99%
MEKK1
  remaining activity at 10 µM: 105%
MLK1
  remaining activity at 10 µM: 98%
MNK2
  remaining activity at 10 µM: 104%
MPSK1
  remaining activity at 10 µM: 115%
MST3
  remaining activity at 10 µM: 135%
PAK6
  remaining activity at 10 µM: 123%
PIM2
  remaining activity at 10 µM: 72%
SIK2
  remaining activity at 10 µM: 81%
TESK1
  remaining activity at 10 µM: 54%
TSSK1
  remaining activity at 10 µM: 83%
TTK
  remaining activity at 10 µM: 88%
TrkA
  remaining activity at 10 µM: 25%
ULK2
  remaining activity at 10 µM: 95%
VEG-FR
  remaining activity at 10 µM: 66%
WNK1
  remaining activity at 10 µM: 105%
p38d MAPK
  remaining activity at 10 µM: 113%
AMPK (hum)
  Kinase activity (percentage of DMSO control): 97 percentage of DMSO control
